Consider 1 compound from patent publication US20070111968A1, “1-Aza-dibenzo[e,h]azulenes for the treatment of central nervous system diseases and disorders” (GLAXOSMITHKLINE ISTRAZIVACKI CENTAR ZAGREB D.O.O., priority 2003, published 2007).

Test [1] concerns the target T1, 5-HT2A receptor (Homo sapiens, UniProt P28223).
T1 construct: expressed in transfected cells; host or cells: CHO-K1 (or COS-7); alternatively human cortex tissue
Briefly: radioligand binding assay for 5-HT2A receptor ([3H]-ketanserin). To be noted: competitive binding. As for the experimental part: (§1) The effect of the compounds of the present invention on the neurochemical steady state was determined by in vitro investigations such as a radionuclide-marked radioligand binding assay for 5-HT2A (Bonhaus D. W. Br. J. Pharmacol. 1995, 115:622; Saucier C. J. Neurochem. 1997, 68:1998) and 5-HT2C receptors (Wolf W. A. J. Neurochem. 1997, 69:1449), in vitro binding assay for σ1 receptor (Thomson W. and Donn R. Arthritis Res. 2002, 4: 302-306) and by in vivo investigations in a tail suspension test (Vogel H. G. and Vogel W. H. Drug Discovery and Evaluation Pharmacological Assays, Springer 1997, 304), in amphethamine-induced hyperlocomotion in mice (Millan M. J. et al, 1998 J. Pharmacol. Exp. Ther. 287: 167-186), in a forced swim test in mice (Porsolt R. D. et al. Arch. Int. Pharmacodyn. 1977, 229:327-336), in meta-chlorophenyl piperazine (m-CPP) test on rats (Drug Dev. Res. 1989, 18:119-144), and in apomorphine, tryptamine, norepinephrine (ATN) test in rats (Arch. Int. […]
(§2) A small concentration of a radioligand having a great affinity for binding to a receptor was incubated with a tissue sample enriched with a certain receptor (1-5 mg of tissue) in a buffered medium (0.2-5 mL). […] When a binding balance was achieved, the receptors to which the radioligand was bound were separated from those to which said ligand was not bound, and the radioactivity of the receptor/radioligand complex was measured. […]

Test [2] concerns the target T2, 5-HT2C receptor (Homo sapiens, UniProt P28335).
T2 construct: expressed in transfected cells; host or cells: CHO-K1 (or COS-7); alternatively choroid plexus tissue
T2 sequence (P28335 33-458): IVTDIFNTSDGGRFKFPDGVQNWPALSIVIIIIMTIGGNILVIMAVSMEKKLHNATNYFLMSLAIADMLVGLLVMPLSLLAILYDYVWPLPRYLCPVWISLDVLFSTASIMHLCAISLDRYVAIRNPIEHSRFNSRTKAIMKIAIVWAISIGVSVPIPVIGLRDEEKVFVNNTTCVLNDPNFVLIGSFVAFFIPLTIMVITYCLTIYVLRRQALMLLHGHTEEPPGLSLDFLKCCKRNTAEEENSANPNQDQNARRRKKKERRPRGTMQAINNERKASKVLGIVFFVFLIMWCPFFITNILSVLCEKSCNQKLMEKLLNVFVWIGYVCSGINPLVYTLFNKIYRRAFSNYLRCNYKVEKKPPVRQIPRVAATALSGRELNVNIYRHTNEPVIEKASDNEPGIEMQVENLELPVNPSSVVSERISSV
Briefly: radioligand binding assay for 5-HT2C receptor ([3H]mesulergine). Particulars: competitive binding. As to the method: as §1, §2

T1 sequence (P28223 whole entry): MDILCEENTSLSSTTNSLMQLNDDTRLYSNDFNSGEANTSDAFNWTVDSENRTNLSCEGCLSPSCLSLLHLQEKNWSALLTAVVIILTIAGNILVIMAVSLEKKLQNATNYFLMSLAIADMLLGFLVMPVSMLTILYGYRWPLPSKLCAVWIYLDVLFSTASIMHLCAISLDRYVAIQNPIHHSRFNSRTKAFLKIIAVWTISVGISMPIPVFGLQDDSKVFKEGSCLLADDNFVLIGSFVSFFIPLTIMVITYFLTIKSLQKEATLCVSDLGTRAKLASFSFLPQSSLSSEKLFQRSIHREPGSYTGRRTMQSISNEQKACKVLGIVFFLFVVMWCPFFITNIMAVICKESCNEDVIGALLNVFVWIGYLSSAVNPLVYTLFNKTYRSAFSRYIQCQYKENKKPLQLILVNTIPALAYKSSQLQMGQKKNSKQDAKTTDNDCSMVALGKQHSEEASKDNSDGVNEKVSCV

Turning to `CN(C)CCOCc1cc2c([nH]1)-c1ccccc1Sc1ccccc1-2` [dimethyl-[2-(1H-8-thia-1-aza-dibenzo[e,h]azulen-2-ylmethoxy)-ethyl]-amine], the IC50 (in general, the concentration that inhibits the measured activity by half) was below 200 nM in test [1] (human cortex or recombinant 5-HT2A in CHO-K1, read-out: binding affinity to 5-HT2A serotonin receptor expressed as IC50 value) and below 200 nM in test [2] (choroid plexus or recombinant 5-HT2C in CHO-K1, read-out: binding affinity to 5-HT2C serotonin receptor expressed as IC50 value). Moreover, the Ki – broadly, a measure of affinity in units of concentration, obtained from inhibition or displacement – in test [1] (human cortex or recombinant 5-HT2A in CHO-K1, read-out: binding affinity to 5-HT2A serotonin receptor, Ki value) was below 100 nM; in test [2] (choroid plexus or recombinant 5-HT2C in CHO-K1, read-out: binding affinity to 5-HT2C serotonin receptor, Ki value) it was below 100 nM.
